Measurements: patent publication US20260078341A1, “TREATMENT OF CANCER USING CHIMERIC ANTIGEN RECEPTOR” (Novartis AG, priority 2014, published 2026)
Read-outs that look alike come from different tables or passages of the source. Marks after values point to notes of the source that are not given here.

Assays:
Format in all cases: in vivo, human
[1] = system: A/H1N1/California/07/2009 influenza; experiment: Anti-A/H1N1/California/07/2009 influenza IgG and IgM levels in serum; details: baseline to 4 weeks post vaccination, vs placebo
Method: FIGS. 44A and 44B. Graphic representations of IgG and IgM levels before and after influenza vaccination. Levels of anti-A/H1N1/California/07/2009 influenza IgG and IgM were measured in serum obtained from subjects before and 4 weeks post influenza vaccination.

[2] = system: A/H1N1 strain A/New Jersey/8/76; details: 4 weeks after seasonal influenza vaccination
B/Brisbane/60/2008 = experiment: Hemagglutination inhibition titers after influenza vaccination, B vaccine strain; details: for HI GMT ratio (CV %) B: GMT at week 4 post vaccination/GMT at baseline
Method: (§1) The trial was observer-blind because the placebo in the RAD001 0.5 mg daily and 20 mg weekly cohorts differed slightly from the RAD001 tablets in those cohorts. […] The treatment duration for all cohorts was 6 weeks during which time subjects underwent safety evaluations in the clinic every 2 weeks. After subjects had been dosed for 4 weeks, RAD001 steady state levels were measured pre-dose and at one hour post dose. After completing the 6 week course of study drug, subjects were given a 2 week drug free break to reverse any possible RAD001-induced immunosuppression, and then were given a 2012 seasonal influenza vaccination (Agrippal®, Novartis Vaccines and Diagnostics, Siena, Italy) containing the strains H1N1 A/California/07/2009, H3N2 A/Victoria/210/2009, B/Brisbane/60/2008. Four weeks after influenza vaccination, subjects had serum collected for influenza titer measurements. Antibody titers to the 3 influenza vaccine strains as well as to 2 heterologous strains (A/H1N1 strain A/New Jersy/8/76 and A/H3N2 strain A/Victoria/361/11) were measured by standard hemagglutination inhibition assay (Kendal, A P et al. (1982) Concepts and procedures for laboratory-based influenza surveillance. Atlanta: Centers for Disease Control and Prevention B17-B35). Levels of IgG and IgM specific for the A/H1N1/California/07/2009 were measured in serum samples taken before and 4 weeks after influenza vaccination as described previously (Spensieri, F. et al. (2013) Proc. Natl. Acad. Sci. USA 110:14330-14335). Results were expressed as fluorescence intensity.
(§2) The primary analysis of geometric mean titer ratios was done using a normal Bayesian regression model with non-informative priors. This model was fitted to each antibody titer on the log scale. The primary outcome in each model was the Day 84 measurement. The Day 63 measurement was included in the outcome vector. The model fitted using SAS 9.2 proc mixed with the prior statement. The covariance structure of the matrix was considered as unstructured (option type=UN). A flat prior was used. For the secondary analysis of seroconversion rates, logistic regression was used.
(§3) The ability of RAD001 to improve immune function in elderly volunteers was evaluated by measuring the serologic response to the 2012 seasonal influenza vaccine. The hemagglutination inhibition (HI) geometric mean titers (GMT) to each of the 3 influenza vaccine strains at baseline and 4 weeks after influenza vaccination are provided in Table 6. The primary analysis variable was the HI GMT ratio (4 weeks post vaccination/baseline). […] This endpoint was chosen because a 1.2-fold increase in the influenza GMT ratio induced by the MF-59 vaccine adjuvant was associated with a decrease in influenza illness (Iob, A et al. (2005) Epidemiol Infect 133:687-693).
(§4) Rates of seroconversion 4 weeks after influenza vaccination were also evaluated. Seroconversion was defined as the change from a negative pre-vaccination titer (i.e., HI titer <1:10) to post-vaccination HI titer ≥1:40 or at least 4-fold increase from a non-negative (>1:10) pre-vaccination HI titer.

[3] = Questionnaires on energy and exercise one year after dosing; details: 0.5 mg daily dosing cohort
[4] = system: A/H1N1/California/07/2009; experiment: Anti-influenza IgG and IgM levels in serum; details: 4 weeks after influenza vaccination
Method: as §1, with “After completing the 6 week course of study drug, subjects were given a 2 week drug free break to reverse any possible RAD001-induced immunosuppression, and then were given a 2012 seasonal influenza vaccination (Agrippal®, Novartis Vaccines and Diagnostics, Siena, Italy) containing the strains H1N1 A/California/07/2009, H3N2 A/Victoria/210/2009, B/Brisbane/60/2008. Four weeks after influenza vaccination, subjects had serum collected for influenza titer measurements.” left out

[5] = system: A/H3N2 strain A/Victoria/361/11; experiment: Seroconversion to heterologous A/H3N2 strain; details: for Percentage of subjects who seroconvert to heterologous strain A/H3N2 A/Victoria/361/11: 4 weeks after seasonal influenza vaccination
H3N2 A/Victoria/210/2009 = experiment: Hemagglutination inhibition titers after influenza vaccination, A/H3N2 vaccine strain; details: for HI GMT ratio (CV %) A/H3N2: GMT at week 4 post vaccination/GMT at baseline
Method: as §1, §2, §3, §4

[6] = Baseline (2 weeks prior to influenza vaccination), RAD001 0.5 mg daily
[7] = Baseline (2 weeks prior to influenza vaccination), RAD001 5 mg weekly
[8] = Baseline (2 weeks prior to influenza vaccination), RAD001 20 mg weekly
[9] = Intention to Treat Population, 0.5 mg
[10] = Intention to Treat Population, 5 mg
[11] = Intention to Treat Population, 20 mg
[12] = Subjects with Baseline Titers <=40, 0.5 mg
[13] = Subjects with Baseline Titers <=40, 5 mg
[14] = Subjects with Baseline Titers <=40, 20 mg
[15] = Week 4 after influenza vaccination, RAD001 0.5 mg daily
[16] = Week 4 after influenza vaccination, RAD001 5 mg weekly
[17] = Week 4 after influenza vaccination, RAD001 20 mg weekly

For CO[C@H]1C[C@@H]2CC[C@@H](C)[C@@](O)(O2)C(=O)C(=O)N2CCCC[C@H]2C(=O)O[C@H]([C@H](C)C[C@@H]2CC[C@@H](OCCO)[C@H](OC)C2)CC(=O)[C@H](C)/C=C(\C)[C@@H](O)[C@@H](OC)C(=O)[C@H](C)C[C@H](C)/C=C/C=C/C=C/1C [RAD001, (1R,9S,12S,15R,16E,18R,19R,21R,23S,24E,26E,28E,30S,32S,35R)-1,18-dihydroxy-12-{(1R)-2-[(1S,3R,4R)-4-(2-hydroxyethoxy)-3-methoxycyclohexyl]-1-methylethyl}-19,30-dimethoxy-15,17,21,23,29,35-hexamethyl-11,36-dioxa-4-azatricyclo[30.3.1.0^4,9]hexatriaconta-16,24,26,28-tetraene-2,3,10,14,20-pentaone], the “change from baseline in anti-H1N1 influenza IgG and IgM levels” value [1] was “No significant difference”, the “Percentage of subjects who seroconvert to heterologous strain A/H1N1 A/NewJersey/8/76” value ([2]; RAD001 5 mg weekly) was 16% and the “Percentage of subjects who seroconvert to heterologous strain A/H1N1 A/NewJersey/8/76” value ([2]; RAD001 20 mg weekly) was 8%. For the same molecule, the “HI GMT (CV %) B” value (B/Brisbane/60/2008; [6]) was 44.2 (96.6), the “HI GMT (CV %) B” value (B/Brisbane/60/2008; [7]) was 64.8 (87.3) and the “HI GMT (CV %) B” value (B/Brisbane/60/2008; [8]) was 58.0 (156.0). The “HI GMT ratio (CV %) B” value (B/Brisbane/60/2008; RAD001 0.5 mg daily) was 2.5 (111.2), the “HI GMT ratio (CV %) B” value (B/Brisbane/60/2008; RAD001 5 mg weekly) was 2.2 (112.8) and the “HI GMT ratio (CV %) B” value (B/Brisbane/60/2008; RAD001 20 mg weekly) was 2.1 (126.5). The “Percent of subjects with seroconversion to influenza 4 weeks after vaccination, B” value (“Percent of subjects … after vaccination, B” below) (B/Brisbane/60/2008; [9]) was 27%, the “Percent of subjects … after vaccination, B” value (B/Brisbane/60/2008; [10]) was 22% and the “Percent of subjects … after vaccination, B” value (B/Brisbane/60/2008; [11]) was 19%. The “Percent of subjects … after vaccination, B” value (B/Brisbane/60/2008; [12]) was 40* Percent, the “Percent of subjects … after vaccination, B” value (B/Brisbane/60/2008; [13]) was 33% and the “Percent of subjects … after vaccination, B” value (B/Brisbane/60/2008; [14]) was 28%. For the same molecule, the “HI GMT (CV %) B” value (B/Brisbane/60/2008; [15]) was 98.4 (94.8), the “HI GMT (CV %) B” value (B/Brisbane/60/2008; [16]) was 117.3 (99.9) and the “HI GMT (CV %) B” value (B/Brisbane/60/2008; [17]) was 99.2 (124.1). For the same molecule, the “energy and exercise ability as compared to placebo” value [3] was “increased energy and exercise ability”, the “post-vaccination anti-influenza IgM and IgG levels, RAD001 versus placebo” value [4] was “did not differ” and the “Percentage of subjects who seroconvert to heterologous strain A/H3N2 A/Victoria/361/11” value ([5]; RAD001 0.5 mg daily) was 38%. For the same molecule, the “Percentage of subjects who seroconvert to heterologous strain A/H3N2 A/Victoria/361/11” value ([5]; RAD001 5 mg weekly) was 39%*, the “Percentage of subjects who seroconvert to heterologous strain A/H3N2 A/Victoria/361/11” value ([5]; RAD001 20 mg weekly) was 40%* and the “H3N2 heterologous strain seroconversion rate” value ([5]; pooled RAD001 cohorts, versus 20% placebo, p=0.007) was 39%. The “HI GMT (CV %) A/H3N2” value (H3N2 A/Victoria/210/2009; [6]) was 106.8 (168.2), the “HI GMT (CV %) A/H3N2” value (H3N2 A/Victoria/210/2009; [7]) was 126.04 (162.6) and the “HI GMT (CV %) A/H3N2” value (H3N2 A/Victoria/210/2009; [8]) was 137.1 (211.5). For the same molecule, the “HI GMT ratio (CV %) A/H3N2” value (H3N2 A/Victoria/210/2009; RAD001 0.5 mg daily) was 2.1 (152.6), the “HI GMT ratio (CV %) A/H3N2” value (H3N2 A/Victoria/210/2009; RAD001 5 mg weekly) was 2.0 (189.2) and the “HI GMT ratio (CV %) A/H3N2” value (H3N2 A/Victoria/210/2009; RAD001 20 mg weekly) was 2.1 (277.3). For the same molecule, the “Percent of subjects with seroconversion to influenza 4 weeks after vaccination, H3N2” value (“Percent of subjects with seroconversion … H3N2” below) (H3N2 A/Victoria/210/2009; [9]) was 27%, the “Percent of subjects with seroconversion … H3N2” value (H3N2 A/Victoria/210/2009; [10]) was 24% and the “Percent of subjects with seroconversion … H3N2” value (H3N2 A/Victoria/210/2009; [11]) was 25%. The “Percent of subjects with seroconversion … H3N2” value (H3N2 A/Victoria/210/2009; [12]) was 64%, the “Percent of subjects with seroconversion … H3N2” value (H3N2 A/Victoria/210/2009; [13]) was 53% and the “Percent of subjects with seroconversion … H3N2” value (H3N2 A/Victoria/210/2009; [14]) was 71%. For the same molecule, the “HI GMT (CV %) A/H3N2” value (H3N2 A/Victoria/210/2009; [15]) was 194.4 (129.1), the “HI GMT (CV %) A/H3N2” value (H3N2 A/Victoria/210/2009; [16]) was 223.0 (118.8) and the “HI GMT (CV %) A/H3N2” value (H3N2 A/Victoria/210/2009; [17]) was 223.0 (163.6).
